Test results reported in US20250066347A1, “SUBSTITUTED THIAZOLIDINEDIONE DERIVATIVE COMPOUND, AND PHARMACEUTICAL COMPOSITION FOR PREVENTING OR TREATING CANCER, COMPRISING SAME” (MEDIFIC, INC., priority 2021, published 2025).
Values joined by “and” are separate entries in the source; they are usually repeats but may differ in a detail not shown here. Equal entries are not always repeated. Where two headings read alike, the source gives them in different places.

Columns and labels:
SREBP = assay: Cell-based assay system using a 6xSRE reporter vector (copGFP intensity) in HOG-GSC-6xSRE-copGFP_HIGH cells; design: dose or concentration left out as unconfirmed; conditions: copGFP intensity normalized to DMSO control = 1, 72 hours
From the text: First, as shown in (a) of FIG. 1, SRE(5′-ATCACCCCAC-3′) 6 copies which are DNA seCuences to which a transcription factor, SREBP active form bonds were inserted into a minimal CMV promoter 5′ front end of a pGreenfire-Lenti-reporter vector to produce a 6xSRE reporter vector. The 6xSRE reporter vector is a vector system in which a minimal CMV promoter is activated only when SREBP in an activated form bonds to 6xSRE and copGFP is expressed, and after the vector was introduced to HOG-GSC which is a brain tumor stem cell, separation into a GFP high cell and a GFP low cell through FACS sorting was performed. Each of SREBP1a and SREBP1c in an active form was overexpressed in separated GFP-low cells (b of FIG. 1), and it was measured therefrom whether the expression amount of GFP was increased. As a result, it was confirmed that the overexpression of SREBP1a and SREBP1c active forms increased GFP expression by 43.30% and 93.49%, in separated GFP-low cells (c of FIG. 1). The separated GFP-high cells were treated with each of fatostatin and FGH10019 known to inhibit activity of DMSO and SREBP which was a control group to measure a change in the expression amount of GFP, and, as a result, it was confirmed that when treated with known materials, fatostatin and FGH10019, the expression of GFP was inhibited by up to 50% (d of FIG. 1).
HOG-GSC-6xSRE-copGFP_HIGH cells were dispensed into a 96-well plate (Corning) at 5000/well, each well was treated […], and then all wells were photographed every 3 hours for 72 hours in an incubator (ThermoFisher) at […], 5% CO2, using real-time cell imaging equipment (Incucyte) to photograph changes in copGFP intensity.

[1] = In vivo brain tissue distribution test after oral administration; conditions: mouse; for Kp / Cmax / Tmax / AUC(0-inf) / AUC(0-t) / MRT inf / half-life: Hsd:ICR(CD-1R); for Kp: brain/plasma, po, 25 mg/kg, PO; for AUC(0-inf): read-out: AUCinf, Mean; for AUC(0-t): read-out: AUClast, Mean; for MRT inf: read-out: MRTinf, Mean; for half-life: read-out: t1/2, Mean (converted)
Description: • Test drug: Compound 11 • Excipient: 20% hydroxypropyl-β-cyclodextrin aqueous solution to which 1% DMSO was added 2.2. Experimental system • Mouse, Hsd:ICR(CD-1R), SPF […] (7 weeks old at the time of administration)
After obtaining the mouse, the mouse was quarantined and acclimatized for 2 weeks, and used in the experiment. An administration dose was 25 mg/kg. A dosage for each individual was calculated based on the weight after fasting for 15 hours (on the day of administration), and the drug was orally administered once using a disposable syringe (1 mL) with a zonde for oral administration attached.
After respiratory anesthesia, blood was collected by heart blood collection with a 1 mL syringe, placed in a K2-EDTA-treated tube, and centrifuged at 8,000 RPM at 4° C. for 20 minutes, and plasma was collected from a supernatant. Heat perfusion was performed on animals after blood collection, a brain tissue was harvested, and olfactory bulb, cerebellum, pones, and medulla oblongata were removed from the harvested brain tissue. The collected plasma and brain tissue were frozen and stored at −80° C. until analysis.
In order to secure a sufficient amount of analysis sample, a mixed (pulled) sample of brain tissue and blood secured from two individuals was used (securing three repetitive samples from 6 animals in one collection). Blood plasma and brain tissue were collected from a mouse of the same week of age to which the compound was not administered, and used as a blank blood plasma and a blank tissue in the material concentration analysis.
190 μL of acetonitrile was added to 10 μL of a blood plasma sample including 200 ng/mL of the internal standard material and vortexed at 2,500 RPM for 60 seconds. Thereafter, centrifugation was performed at 12,000 RPM for 5 minutes, and 50 μL of a supernatant was taken and mixed with 50 μL of acetonitrile. 2 μL thereof was injected into LC-MS/MS.
The brain tissue was weighed, third distilled water equivalent to 4 times (w/v=¼) the weight was added, and homogenization was performed using a homogenizer. 10 μL of the homogenized tissue mixed solution was taken, 190 μL of acetonitrile including 50 ng/mL of the internal standard material was added, and vortexing was performed at 2,500 RPM for 60 seconds. Thereafter, centrifugation was performed at 12,000 RPM for 10 minutes, and 2 μL of a supernatant was taken and injected into LC-MS/MS.
PK parameter was calculated with a Non-compartmental analysis model using a PKSolver2.0 software.

[2] = tested on: HOG-GSC brain tumor stem cell line; assay: In vivo efficacy evaluation, HOG-GSC orthotopic xenograft model; design: species or system BALB/c nude mouse; conditions: 25 mg/kg/day oral, day 16 after tumor transplantation
From the text: First, HOG-GSC which is a brain tumor stem cell line was transplanted to a caudate putamen in the brain of a BALB/c nude mouse to establish am orthotropic xenograft model. After transplanting the brain tumor stem cells, the implementation compound of the present invention was orally administered from day 7 for 3 weeks with a schedule of 5 days of administration and 2 days of off medication, and only excipient was administration in the same manner to the control group. Thereafter, based on clinical findings resulting from the growth of the brain tumor in the animals, the survival period of the mouse was investigated, thereby confirming that the death of the animal due to a tumor was delayed by the administration of the implementation compound of the present invention. In addition, both the control mouse and the mouse to which the implementation compound of the present invention was administered were euthanized on day 16 after transplanting the tumor, their brain tissues were harvested, and the sizes of the brain tumor on the same date were compared.

Kp ([1]; read-out: Brain-to-plasma ratio by AUC (brain/plasma)): 0.543
Kp ([1]; read-out: Brain-to-plasma ratio by concentration (brain/plasma), Average): 0.47
Kp ([1]; read-out: Brain-to-plasma ratio by concentration (brain/plasma), Max): 0.777
Cmax ([1]; Brain (25 mg/kg, PO)): 12600 ng/mL
Tmax ([1]; Brain (25 mg/kg, PO)): 3 h
AUC(0-inf) ([1]; Brain (25 mg/kg, PO)): 96.8 µg·h/mL
AUC(0-t) ([1]; Brain (25 mg/kg, PO)): 96 µg·h/mL
MRT inf ([1]; Brain (25 mg/kg, PO)): 6 h
half-life ([1]; Brain (25 mg/kg, PO)): 2.83 h
Cmax ([1]; Plasma (25 mg/kg, PO)): 20400 ng/mL
Tmax ([1]; Plasma (25 mg/kg, PO)): 1.33 h
AUC(0-inf) ([1]; Plasma (25 mg/kg, PO)): 180 µg·h/mL
AUC(0-t) ([1]; Plasma (25 mg/kg, PO)): 177 µg·h/mL
MRT inf ([1]; Plasma (25 mg/kg, PO)): 6.95 h
half-life ([1]; Plasma (25 mg/kg, PO)): 3.08 h
Clobs, Mean ([1]; Plasma (25 mg/kg, PO)): 2.320 mL/min/kg
Vzobs, Mean ([1]; Plasma (25 mg/kg, PO)): 0.617 L/kg
SMILES: CC(C)(C)c1ccc(-c2cc(/C=C3\SC(=O)NC3=O)ccn2)cc1 [Compound 11, (Z)-5-((2-(4-(tert-butyl)phenyl)pyridin-4-yl)methylene)thiazolidine-2,4-dione]
activity (SREBP): 4.6%
Tumor cross-sectional area/brain cross-sectional ratio, Average [2]: 0.02186
Tumor cross-sectional area/brain cross-sectional ratio, individual [2]: 0.04373 and 0
